According to patent US20240158370A1, “CK1 alpha AND DUAL CK1 alpha / GSPT1 DEGRADING COMPOUNDS” (Innovo Therapeutics, Inc., priority 2022, published 2024):

What was measured:
CK1α = target: T1, CK1α (Homo sapiens, UniProt P48729+Q96SW2); test: HiBiT degradation assay, CK1α, Procedure A; assay type: cell-based
T1 construct: CSNK1A1-HiBit KI HEK293(LgBit) Cells; host or cells: HEK293(LgBit) knock-in cells
Experimental: (§1) Compounds were spotted onto Cornin 384-Well, Cell Culture-Treated, Flat-Bottom, Low Flange Microplate (Fisher Scientific, Catalog #07-201-013) using a Tecan D300e digital dispenser. Ten-point dose response curves spanning from 10 μM to 0.005 μM with a 0.1% DMSO tolerance were used.
(§2) Cells were dissociated from tissue 182 cm^2 Tissue Culture Flask (CellTreat Catalog #229351) by washing the cells with PBS (Fisher Scientific Catalog #BP3994) followed by dissociation with Trypsin-EDTA (0.25%) (Thermo Scientific Catalog #25200056). Trysin was neutralized and cells were resuspended with DMEM+10% FBS. Cells were centrifuged for 5 minutes at 1200 RPMs. Cell culture media was aspirated off and cells were resuspended with DMEM+10% FBS. Cell density was determined using a Denovix CellDrop BF cell counter. Cell density was adjusted to 1×10^6 cells/ml. 40 μl of cells was added to compound treated tissue culture plates and incubated for six hours at 37° C. After six hours, cell culture plates were removed from tissue culture incubator and cooled to room temperature. 40 μl of Nano-GloHiBiT Lytic Detection Reagent (Promega, Catalog #N3040) was added to each well. Plates were placed on an orbital shaker (600 rpm) for 20 minutes. Luminescence was measured using an Envsion plate reader (Perkin Elmer). DC50 curves and Ymin were generated using a 4-parameter curve fit with GraphPad Prism software (Prism Corporation).
(§3) Results from the HiBiT assay (DC50 (nM) and Ymin (% remaining)) are shown below. All CK1α data was generated according to Procedure A. GSPT1 data for Examples 1-600, 603-620 and 703-705 was generated according to Procedure A. GSPT1 data for Examples 601, 621-702 and 706-735 was generated according to Procedure B.

GSPT1 = GSPT1 (Homo sapiens, UniProt P15170+Q96SW2); test: HiBiT degradation assay, GSPT1, Procedure A; assay type: cell-based; design: HiBit-GSPT1 KI HEK293(LgBit) Cells; host or cells: HEK293(LgBit) knock-in cells; conditions: six hours incubation
GSPT1, sequence (P15170 whole entry): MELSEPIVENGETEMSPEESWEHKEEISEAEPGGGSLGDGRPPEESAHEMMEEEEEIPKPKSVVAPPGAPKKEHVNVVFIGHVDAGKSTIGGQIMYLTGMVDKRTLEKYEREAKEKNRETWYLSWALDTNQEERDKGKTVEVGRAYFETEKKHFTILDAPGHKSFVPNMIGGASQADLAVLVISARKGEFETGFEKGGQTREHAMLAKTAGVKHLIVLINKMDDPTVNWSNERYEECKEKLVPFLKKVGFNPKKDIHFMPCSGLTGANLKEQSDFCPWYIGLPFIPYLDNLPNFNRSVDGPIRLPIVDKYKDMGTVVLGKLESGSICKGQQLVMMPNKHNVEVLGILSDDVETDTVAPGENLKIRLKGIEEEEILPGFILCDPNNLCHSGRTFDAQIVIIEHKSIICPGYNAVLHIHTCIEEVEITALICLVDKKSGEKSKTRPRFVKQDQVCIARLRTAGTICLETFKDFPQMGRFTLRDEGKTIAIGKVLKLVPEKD
GSPT1, sequence (Q96SW2 whole entry): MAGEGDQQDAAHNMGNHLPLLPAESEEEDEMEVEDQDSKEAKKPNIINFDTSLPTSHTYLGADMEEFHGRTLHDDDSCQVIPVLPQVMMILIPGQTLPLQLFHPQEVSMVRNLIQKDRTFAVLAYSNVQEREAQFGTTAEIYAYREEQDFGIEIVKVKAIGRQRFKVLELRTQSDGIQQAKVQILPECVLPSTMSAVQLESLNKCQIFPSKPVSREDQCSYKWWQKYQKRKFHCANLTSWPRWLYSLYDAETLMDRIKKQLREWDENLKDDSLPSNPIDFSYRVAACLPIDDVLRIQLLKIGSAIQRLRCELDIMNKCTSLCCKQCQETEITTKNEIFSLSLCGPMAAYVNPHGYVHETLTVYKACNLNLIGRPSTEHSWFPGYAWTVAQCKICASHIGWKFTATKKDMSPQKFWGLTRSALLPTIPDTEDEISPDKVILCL
GSPT1, sequence (Q16531 whole entry partner): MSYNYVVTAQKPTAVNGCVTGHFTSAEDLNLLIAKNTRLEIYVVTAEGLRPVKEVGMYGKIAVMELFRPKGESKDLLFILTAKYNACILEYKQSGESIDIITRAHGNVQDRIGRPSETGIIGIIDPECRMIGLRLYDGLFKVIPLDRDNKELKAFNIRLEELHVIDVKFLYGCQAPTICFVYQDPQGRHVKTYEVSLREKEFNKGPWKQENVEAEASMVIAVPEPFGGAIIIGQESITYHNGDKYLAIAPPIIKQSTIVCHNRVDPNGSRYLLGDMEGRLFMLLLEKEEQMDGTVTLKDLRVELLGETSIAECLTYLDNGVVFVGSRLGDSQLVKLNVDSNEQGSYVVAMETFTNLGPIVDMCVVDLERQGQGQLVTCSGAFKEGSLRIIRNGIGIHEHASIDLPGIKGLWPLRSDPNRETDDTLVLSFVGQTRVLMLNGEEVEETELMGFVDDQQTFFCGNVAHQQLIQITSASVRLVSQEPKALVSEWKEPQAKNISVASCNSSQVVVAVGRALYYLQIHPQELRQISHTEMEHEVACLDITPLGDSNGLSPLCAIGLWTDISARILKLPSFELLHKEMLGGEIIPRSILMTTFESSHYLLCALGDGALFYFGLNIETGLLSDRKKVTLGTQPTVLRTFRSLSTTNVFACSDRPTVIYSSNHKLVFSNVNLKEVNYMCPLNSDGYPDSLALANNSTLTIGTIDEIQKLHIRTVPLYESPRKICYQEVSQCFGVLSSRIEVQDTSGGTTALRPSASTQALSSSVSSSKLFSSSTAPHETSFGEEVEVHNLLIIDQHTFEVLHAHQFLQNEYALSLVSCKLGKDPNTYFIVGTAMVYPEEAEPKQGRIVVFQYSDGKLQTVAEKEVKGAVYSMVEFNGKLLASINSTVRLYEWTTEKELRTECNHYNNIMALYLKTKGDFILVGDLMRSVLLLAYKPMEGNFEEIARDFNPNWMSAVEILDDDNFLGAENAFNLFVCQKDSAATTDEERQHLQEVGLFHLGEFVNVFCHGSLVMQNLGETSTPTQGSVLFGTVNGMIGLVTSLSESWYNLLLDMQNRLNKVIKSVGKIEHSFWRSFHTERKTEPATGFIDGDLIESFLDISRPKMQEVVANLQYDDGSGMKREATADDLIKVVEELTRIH
Experimental: as §1, §2, §3

T1 sequence (P48729 whole entry): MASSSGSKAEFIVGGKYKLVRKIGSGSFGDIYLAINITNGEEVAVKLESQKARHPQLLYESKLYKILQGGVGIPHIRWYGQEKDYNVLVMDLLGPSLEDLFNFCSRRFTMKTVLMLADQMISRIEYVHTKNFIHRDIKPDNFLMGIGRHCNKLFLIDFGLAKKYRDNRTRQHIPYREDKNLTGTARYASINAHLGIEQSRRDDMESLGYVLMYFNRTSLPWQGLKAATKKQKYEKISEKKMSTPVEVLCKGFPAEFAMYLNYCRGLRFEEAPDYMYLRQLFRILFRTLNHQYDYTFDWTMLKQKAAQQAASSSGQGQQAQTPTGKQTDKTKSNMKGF
T1 sequence (Q96SW2 whole entry): as the sequence (Q96SW2 whole entry) above
T1 sequence (Q16531 whole entry partner): as the sequence (Q16531 whole entry partner) above

| SMILES | CK1α Ymin (CK1α; six hours incubation) | DC50 (CK1α; six hours incubation) [nM] | DC50 (GSPT1) [nM] | GSPT1 Ymin (GSPT1) | CK1α Ymin (CK1α; six hours) | DC50 (CK1α; six hours) [nM] |
| --- | --- | --- | --- | --- | --- | --- |
| Cn1ncc(-c2ccc3c(c2)CN(C2CCC(=O)NC2=O)C3=O)c1-c1ccccc1 (stereo not drawn) [Example 1, 3-(5-(1-Methyl-5-phenyl-1H-pyrazol-4-yl)-1-oxoisoindolin-2-yl)piperidine-2,6-dione] | D (D = >10- 25% remaining) | < 25 | ≥ 25 | F (F = >75-100% remaining) | – | – |
| Cn1cnc(-c2ccc3c(c2)CN(C2CCC(=O)NC2=O)C3=O)c1-c1ccccc1 (stereo not drawn) [Example 2, 3-(5-(1-Methyl-5-phenyl-1H-imidazol-4-yl)-1-oxoisoindolin-2-yl)piperidine-2,6-dione] | C (C = 0-10% remaining) | < 25 | < 25 | E (E = >25-75% remaining) | – | – |
| Cn1cc(-c2ccc3c(c2)CN(C2CCC(=O)NC2=O)C3=O)c(-c2ccccc2)n1 (stereo not drawn) [Example 3, 3-(5-(1-Methyl-3-phenyl-1H-pyrazol-4-yl)-1-oxoisoindolin-2-yl) piperidine-2,6-dione] | E (E = >25-75% remaining) | < 25 | ≥ 25 | F (F = >75-100% remaining) | – | – |
| O=C1CCC(N2Cc3cc(-c4cscc4-c4ccccc4)ccc3C2=O)C(=O)N1 (stereo not drawn) [Example 4, 3-(1-Oxo-5-(4-phenylthiophen-3-yl)isoindolin-2-yl)piperidine-2,6-dione] | E (E = >25-75% remaining) | ≥ 25 | ≥ 25 | F (F = >75-100% remaining) | – | – |
| O=C1CCC(N2Cc3cc(-c4c[nH]nc4-c4ccccc4)ccc3C2=O)C(=O)N1 (stereo not drawn) [Example 5, 3-(1-Oxo-5-(3-phenyl-1H-pyrazol-4-yl)isoindolin-2-yl) piperidine-2,6-dione] | D (D = >10- 25% remaining) | < 25 | ≥ 25 | F (F = >75-100% remaining) | – | – |
| O=C1CCC(N2Cc3cc(-c4ccnn4-c4ccccc4)ccc3C2=O)C(=O)N1 (stereo not drawn) [Example 6, 3-(1-oxo-5-(1-phenyl-1H-pyrazol-5-yl)isoindolin-2-yl)piperidine-2,6-dione] | E (E = >25-75% remaining) | ≥ 25 | ≥ 25 | F (F = >75-100% remaining) | – | – |
| Cn1ncc(-c2ccc3c(c2)CN(C2CCC(=O)NC2=O)C3=O)c1-c1ccc(F)cc1 (stereo not drawn) [Example 8, 3-(5-(5-(4-fluorophenyl)-1-methyl-1H-pyrazol-4-yl)-1-oxoisoindolin-2-yl)piperidine-2,6-dione] | E (E = >25-75% remaining) | < 25 | ≥ 25 | F (F = >75-100% remaining) | – | – |
| O=C1CCC(N2Cc3cc(-c4cnn(-c5ccccc5)c4)ccc3C2=O)C(=O)N1 (stereo not drawn) [Example 9, 3-(1-Oxo-5-(1-phenyl-1H-pyrazol-4-yl)isoindolin-2-yl)piperidine-2,6-dione] | E (E = >25-75% remaining) | ≥ 25 | ≥ 25 | E (E = >25-75% remaining) | – | – |
| Cn1cnc(-c2ccc3c(c2)CN(C2CCC(=O)NC2=O)C3=O)c1-c1ccc(F)cc1 (stereo not drawn) [Example 10, 3-(5-(5-(4-Fluorophenyl)-1-methyl-1H-imidazol-4-yl)-1-oxoisoindolin-2-yl)piperidine-2,6-dione] | C (C = 0-10% remaining) | < 25 | ≥ 25 | E (E = >25-75% remaining) | – | – |
| Cc1[nH]nc(-c2ccc3c(c2)CN(C2CCC(=O)NC2=O)C3=O)c1-c1ccccc1 (stereo not drawn) [Example 11] | C (C = 0-10% remaining) | < 25 | < 25 | D (D = >10- 25% remaining) | – | – |

Further lines, results first:

| CK1α Ymin (CK1α; six hours incubation) | DC50 (CK1α; six hours incubation) [nM] | DC50 (GSPT1) [nM] | GSPT1 Ymin (GSPT1) | CK1α Ymin (CK1α; six hours) | DC50 (CK1α; six hours) [nM] | SMILES |
| --- | --- | --- | --- | --- | --- | --- |
| C (C = 0-10% remaining) | < 25 | < 25 | E (E = >25-75% remaining) | – | – | O=C1CCC(N2Cc3cc(-c4nc[nH]c4-c4ccccc4)ccc3C2=O)C(=O)N1 (stereo not drawn) [Example 13, 3-(1-Oxo-5-(5-phenyl-1H-imidazol-4-yl)isoindolin-2-yl) piperidine-2,6-dione] |
| C (C = 0-10% remaining) | < 25 | < 25 | E (E = >25-75% remaining) | – | – | O=C1CCC(N2Cc3cc(-c4ncoc4-c4ccccc4)ccc3C2=O)C(=O)N1 (stereo not drawn) [Example 15, 3-(1-oxo-5-(5-phenyloxazol-4-yl)isoindolin-2-yl)piperidine-2,6-dione] |
| E (E = >25-75% remaining) | ≥ 25 | ≥ 25 | F (F = >75-100% remaining) | – | – | Cn1cnc(-c2cc3c(s2)C(=O)N(C2CCC(=O)NC2=O)C3)c1-c1ccccc1 (stereo not drawn) [Example 16, 3-(2-(1-methyl-5-phenyl-1H-imidazol-4-yl)-6-oxo-4,6-dihydro-5H-thieno[2,3-c]pyrrol-5-yl)piperidine-2,6-dione] |
| E (E = >25-75% remaining) | ≥ 25 | ≥ 25 | E (E = >25-75% remaining) | – | – | Cc1nn(C)c(-c2ccc3c(c2)CN(C2CCC(=O)NC2=O)C3=O)c1-c1ccccc1 (stereo not drawn) [Example 18, 3-(5-(1,3-Dimethyl-4-phenyl-1H-pyrazol-5-yl)-1-oxoisoindolin-2-yl)piperidine-2,6-dione] |
| E (E = >25-75% remaining) | ≥ 25 | ≥ 25 | E (E = >25-75% remaining) | – | – | Cn1cnc(-c2ccn3c(=O)n(C4CCC(=O)NC4=O)nc3c2)c1-c1ccccc1 (stereo not drawn) [Example 20, 3-(7-(1-Methyl-5-phenyl-1H-imidazol-4-yl)-3-oxo-[1,2,4]triazolo[4,3-a]pyridin-2 (3H)-yl)piperidine-2,6-dione] |
| E (E = >25-75% remaining) | ≥ 25 | ≥ 25 | C (C = 0-10% remaining) | – | – | Cn1cnc(-c2ccccc2)c1-c1ccc2c(c1)CN(C1CCC(=O)NC1=O)C2=O (stereo not drawn) [Example 21, 3-(5-(1-Methyl-4-phenyl-1H-imidazol-5-yl)-1-oxoisoindolin-2-yl)piperidine-2,6-dione] |
| C (C = 0-10% remaining) | < 25 | < 25 | E (E = >25-75% remaining) | – | – | CC(C)Cn1cnc(-c2ccc3c(c2)CN(C2CCC(=O)NC2=O)C3=O)c1-c1ccccc1 (stereo not drawn) [Example 22, 3-(5-(1-Isobutyl-5-phenyl-1H-imidazol-4-yl)-1-oxoisoindolin-2-yl)piperidine-2,6-dione] |
| D (D = >10- 25% remaining) | < 25 | ≥ 25 | E (E = >25-75% remaining) | – | – | O=C1CCC(N2Cc3cc(-c4ncsc4-c4ccccc4)ccc3C2=O)C(=O)N1 (stereo not drawn) [Example 23, 3-(1-Oxo-5-(5-phenylthiazol-4-yl)isoindolin-2-yl) piperidine-2,6-dione] |
| C (C = 0-10% remaining) | < 25 | ≥ 25 | E (E = >25-75% remaining) | – | – | Cn1cnc(-c2ccc3c(c2)CN([C@@H]2CCC(=O)NC2=O)C3=O)c1-c1ccc(F)cc1 [Example 24, (R)-3-(5-(5-(4-fluorophenyl)-1-methyl-1H-imidazol-4-yl)-1-oxoisoindolin-2-yl) piperidine-2,6-dione] |
| – | – | – | – | C (C = 0-10% remaining) | < 25 | Cn1nc(-c2ccc3c(c2)CN(C2CCC(=O)NC2=O)C3=O)cc1-c1ccc(C(F)(F)F)cc1 (stereo not drawn) [Example 495, 3-(5-(1-methyl-5-(4-(trifluoromethyl)phenyl)-1H-pyrazol-3-yl)-1-oxoisoindolin-2-yl)piperidine-2,6-dione] |
